According to patent publication US20220220135A1 (BAR-ILAN UNIVERSITY, priority 2019, published 2022):
Where “and” joins values, the source holds several entries; their conditions need not be identical. Equal entries are not always repeated.

Tests used:
[1] = target: T1, NTPDase8 (Homo sapiens, UniProt Q5MY95); assay: Stability to hydrolysis by human NTPDase8; type: in vitro ADME; conditions: analogue 100 μM; activity with 100 μM ATP = 100%
T1 sequence (Q5MY95 1-495): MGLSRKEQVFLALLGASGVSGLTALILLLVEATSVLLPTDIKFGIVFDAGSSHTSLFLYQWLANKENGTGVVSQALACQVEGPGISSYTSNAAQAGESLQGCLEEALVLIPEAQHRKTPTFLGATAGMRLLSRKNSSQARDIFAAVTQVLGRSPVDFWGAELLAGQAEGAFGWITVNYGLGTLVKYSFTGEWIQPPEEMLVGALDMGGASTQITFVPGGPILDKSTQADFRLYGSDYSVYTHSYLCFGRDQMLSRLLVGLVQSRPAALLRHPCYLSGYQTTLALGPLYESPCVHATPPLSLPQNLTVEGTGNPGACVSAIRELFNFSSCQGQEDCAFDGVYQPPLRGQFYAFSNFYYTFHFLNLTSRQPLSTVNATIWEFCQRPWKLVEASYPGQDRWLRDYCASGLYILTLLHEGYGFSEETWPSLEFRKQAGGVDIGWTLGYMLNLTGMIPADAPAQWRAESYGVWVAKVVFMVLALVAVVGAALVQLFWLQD
Description: (§1) Uridine 5′-Pα,α-phosphorodithioate analogues, 9-12, were tested for their stability to degradation by NPP1 and NTPDases. These enzymes are involved in the metabolism of extracellular nucleotides. Analogues 9-12 were not hydrolyzed by hNPP1 (Table 2). […] Analogue 10 was hydrolyzed by hNTPDase1, -2 and -3 at 30-39% the rate of ATP and was slightly hydrolyzed by human NTPDase8 at 16% the rate of ATP.
(§2) Analogues 9-12 were incubated in the presence of the indicated ectonucleotidase at a concentration of 100 μM. The activity with 100 μM ATP was set as 100%, which was 329±108, 302±34, 263±51, 195±76 nmol of Pi·min−1·mg of protein−1 for NTPDase1, -2, -3 and -8, respectively, and 34±7 nmol for NPP1. Data presented are the mean±SEM of results from two experiments.

[2] = target: T2, NTPDase1 (Homo sapiens, UniProt P49961); assay: Stability to hydrolysis by human NTPDase1; type: in vitro ADME; conditions: analogue 100 μM; activity with 100 μM ATP = 100%
T2 sequence (P49961 1-510): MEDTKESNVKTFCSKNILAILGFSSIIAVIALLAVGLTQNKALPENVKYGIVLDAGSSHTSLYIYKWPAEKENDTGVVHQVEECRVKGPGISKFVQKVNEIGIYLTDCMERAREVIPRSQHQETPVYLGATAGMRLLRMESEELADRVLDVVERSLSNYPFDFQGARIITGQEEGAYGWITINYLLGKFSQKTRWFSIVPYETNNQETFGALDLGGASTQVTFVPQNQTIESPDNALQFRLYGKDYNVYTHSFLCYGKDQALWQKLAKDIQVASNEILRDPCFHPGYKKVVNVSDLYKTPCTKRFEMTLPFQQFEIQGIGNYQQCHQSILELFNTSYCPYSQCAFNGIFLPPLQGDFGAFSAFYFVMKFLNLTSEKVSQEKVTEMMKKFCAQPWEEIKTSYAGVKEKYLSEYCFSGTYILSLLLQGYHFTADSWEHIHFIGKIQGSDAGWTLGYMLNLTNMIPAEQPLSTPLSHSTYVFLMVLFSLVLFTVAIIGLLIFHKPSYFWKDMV
Description: as §1, §2

[3] = target: T3, human P2Y1R (Homo sapiens, UniProt P47900); assay: Calcium mobilization in 1321N1 astrocytoma cells expressing human P2Y1R; type: cell-based
T3 construct: expressed in transfected cells; host or cells: 1321N1 astrocytoma cells
Description: (§3) Given the structural resemblance of 106-109 to the natural ligands of P2Y receptors, adenine and uracil nucleotides as natural substrates, were assessed for agonist potency on the human P2Y1, P2Y2, P2Y4, and P2Y6 receptor. To evaluate NPP1 selectivity of analogs 106-109, they were tested for their ability to activate of the uridine-nucleotide sensitive human recombinant P2Y1,2,4,6-receptors. The agonist potencies of this series of nucleotide analogues on the Gq protein-coupled human P2Y1R, P2Y2R, P2Y4R, and P2Y6R was determined by assessing its ability to induce calcium mobilization in stably transfected 1321N1 astrocytoma cells (Table 8). The nucleotide analogues were found in calcium mobilization assays to activate the P2Y2R with mid-micromolar potency.

[4] = target: T4, human P2Y4R (Homo sapiens, UniProt P51582); assay: Calcium mobilization in 1321N1 astrocytoma cells expressing human P2Y4R; type: cell-based
T4 construct: expressed in transfected cells; host or cells: 1321N1 astrocytoma cells
Description: as §3

[5] = target: T5, human NPP3 (Homo sapiens, UniProt O14638); assay: Inhibition of human NPP3, 100 μM p-Nph-5′-TMP as substrate (Tables 5, 7); type: biochemical; conditions: 100 μM p-Nph-5′-TMP as a substrate; n = 3
T5 sequence (O14638 1-875): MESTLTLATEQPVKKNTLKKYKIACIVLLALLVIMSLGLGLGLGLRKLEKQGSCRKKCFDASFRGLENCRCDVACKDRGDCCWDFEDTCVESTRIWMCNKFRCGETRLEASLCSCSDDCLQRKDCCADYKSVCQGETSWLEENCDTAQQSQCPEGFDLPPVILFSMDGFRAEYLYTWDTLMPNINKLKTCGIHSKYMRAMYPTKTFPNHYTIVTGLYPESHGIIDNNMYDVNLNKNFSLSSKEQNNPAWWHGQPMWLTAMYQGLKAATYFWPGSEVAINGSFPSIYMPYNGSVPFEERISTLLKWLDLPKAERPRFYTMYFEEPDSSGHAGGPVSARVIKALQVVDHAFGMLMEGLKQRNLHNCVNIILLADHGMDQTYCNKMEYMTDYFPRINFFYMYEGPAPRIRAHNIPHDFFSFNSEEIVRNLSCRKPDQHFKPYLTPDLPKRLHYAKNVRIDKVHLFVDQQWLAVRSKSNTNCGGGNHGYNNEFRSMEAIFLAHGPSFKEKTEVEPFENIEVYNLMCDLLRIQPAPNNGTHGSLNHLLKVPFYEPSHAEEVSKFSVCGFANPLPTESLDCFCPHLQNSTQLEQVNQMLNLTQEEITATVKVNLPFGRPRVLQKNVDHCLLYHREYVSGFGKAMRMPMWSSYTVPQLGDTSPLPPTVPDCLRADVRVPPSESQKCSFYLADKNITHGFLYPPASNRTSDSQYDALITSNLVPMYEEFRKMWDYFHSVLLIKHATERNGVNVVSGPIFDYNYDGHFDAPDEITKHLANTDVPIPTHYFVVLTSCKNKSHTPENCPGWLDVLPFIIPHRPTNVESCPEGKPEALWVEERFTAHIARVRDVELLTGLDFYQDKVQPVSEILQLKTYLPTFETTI

[6] = target: T6, human P2Y2R (Homo sapiens, UniProt P41231); assay: Calcium mobilization in 1321N1 astrocytoma cells expressing human P2Y2R; type: cell-based
T6 construct: expressed in transfected cells; host or cells: 1321N1 astrocytoma cells
Description: as §3

[7] = target: T7, human CD39 (Homo sapiens, UniProt P49961); assay: Inhibition of human CD39, 0.5 μM PSB-170621A as substrate; type: biochemical; conditions: 0.5 μM PSB-170621A as a substrate; n = 3
T7 sequence (P49961 1-510): T2 sequence (P49961 1-510)

T6 sequence (P41231 whole entry): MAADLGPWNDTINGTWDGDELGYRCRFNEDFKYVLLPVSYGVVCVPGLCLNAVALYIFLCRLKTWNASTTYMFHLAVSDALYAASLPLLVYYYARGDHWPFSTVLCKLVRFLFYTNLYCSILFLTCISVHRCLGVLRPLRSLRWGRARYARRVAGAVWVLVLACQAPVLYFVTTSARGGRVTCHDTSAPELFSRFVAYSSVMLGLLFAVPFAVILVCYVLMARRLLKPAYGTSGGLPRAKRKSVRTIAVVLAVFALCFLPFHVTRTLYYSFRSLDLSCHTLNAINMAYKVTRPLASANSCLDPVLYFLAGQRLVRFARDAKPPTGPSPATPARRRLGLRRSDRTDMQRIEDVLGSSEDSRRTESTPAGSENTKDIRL
T3 sequence (P47900 whole entry): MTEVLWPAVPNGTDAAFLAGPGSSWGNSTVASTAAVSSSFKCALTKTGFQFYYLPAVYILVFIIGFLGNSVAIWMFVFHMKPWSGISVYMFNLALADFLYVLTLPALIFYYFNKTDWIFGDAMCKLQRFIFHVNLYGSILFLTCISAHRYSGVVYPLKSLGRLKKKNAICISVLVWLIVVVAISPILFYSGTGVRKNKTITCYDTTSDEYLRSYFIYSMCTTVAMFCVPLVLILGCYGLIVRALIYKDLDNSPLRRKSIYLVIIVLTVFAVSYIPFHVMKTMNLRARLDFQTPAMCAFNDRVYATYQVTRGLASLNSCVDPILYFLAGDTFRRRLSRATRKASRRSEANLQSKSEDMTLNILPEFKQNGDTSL
T4 sequence (P51582 whole entry): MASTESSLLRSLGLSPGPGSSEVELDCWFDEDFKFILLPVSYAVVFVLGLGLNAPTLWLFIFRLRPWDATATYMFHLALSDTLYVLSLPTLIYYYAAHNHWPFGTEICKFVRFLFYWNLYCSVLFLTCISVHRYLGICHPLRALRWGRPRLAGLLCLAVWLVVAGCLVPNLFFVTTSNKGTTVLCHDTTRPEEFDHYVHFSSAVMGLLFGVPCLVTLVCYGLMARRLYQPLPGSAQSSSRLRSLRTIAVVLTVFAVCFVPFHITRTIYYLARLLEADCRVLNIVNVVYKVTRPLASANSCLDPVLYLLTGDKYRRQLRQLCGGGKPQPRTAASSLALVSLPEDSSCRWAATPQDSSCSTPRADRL

SMILES	Relative activity (%) ± SEM of ATP hydrolysis, NTPDase8 [1]	Relative activity (%) ± SEM of ATP hydrolysis, NTPDase1 [2] [%]	% activation at 10 μM, P2Y1 [3] [%]	% activation at 10 μM, P2Y4 [4] [%]	% inhibition ± SEM, human NPP3 [5]	% activation at 10 μM, P2Y2 [6] [%]	% inhibition ± SEM, human CD39 [7] [%]
O=c1ccn([C@@H]2O[C@H](COP(=S)(S)OP(=O)(O)OP(=O)(O)O)[C@@H](O)[C@H]2O)c(=O)[nH]1 (stereo partly shown) [Analogue 10]	16% and 16.5 ± 2.8%	30.8 ± 3.2	–	–	–	–	–
Nc1ncnc2c1ncn2COCCOP(=S)(S)OP(=O)(O)O (stereo not shown) [compound 106]	–	–	2 ± 2	0 ± 0	n.i.d	32 ± 18	14 ± 1
